Patent US20080064668A1, “1,3-Diacylated, 26,27-Alkyl/Haloakyl Vitamin D3 Compounds and Methods of Use Thereof” (BioXell S.p.A., priority 2003, published 2008)
“Also recorded” adds a separate entry of the source.

Assays:
[1] = Determination of Maximum Tolerated Dose (MTD); details: for MTD at 4 days: female, C57BL/6, mouse, in vivo, po; for MTD compared with the corresponding dihydroxy (parent) compound: versus (1) or (3)
Description: The maximum tolerated dose of the vitamin D3 compounds of the invention were determined in eight week-old female C57BL/6 mice (3 mice/group) dosed orally (0.1 ml/mouse) with various concentrations of Vitamin D3 analogs daily for four days. Analogs were formulated in miglyol for a final concentration of 0.01, 0.03, 0.1 0.3, 1, 3, 10, 30, 100 and 300 μg/kg when given at 0.1 ml/mouse p.o. daily. Blood for serum calcium assay was drawn by tail bleed on day five, the final day of the study.

IFN-γ production = IFN-γ production in the mixed leukocyte response (MLR); assay type: cell-based; details: 120 h; allogeneic PBMC from 2 donors, 5 days, ELISA; read-out: INF-γ IC50
Description: Immature dendritic cells (DC) were prepared as described in Romani, N. et al. (Romani, N. et al. (1996) J. Immunol. Meth. 196:137). IFN-γ production by allogeneic T cell activation in the mixed leukocyte response (MLR) was determined as described in Penna, G., et al., J Immunol., 164: 2405-2411 (2000).
Briefly, peripheral blood mononuclear cells (PBMC) were separated from buffy coats by Ficoll gradient and the same number (3×10^5) of allogeneic PBMC from 2 different donors were co-cultured in 96-well flat-bottom plates. The vitamin D3 compounds were added to each of the cultures.

ECV = test: Proliferation assay using bladder cancer cell lines, ECV; assay type: cell-based, human; details: 72 h culture, CyQuant proliferation assay
RT112 = test: Proliferation assay using bladder cancer cell lines, RT112; assay type: cell-based, human; details: 72 h culture, CyQuant proliferation assay
Description: (§1) Bladder cancer cell lines (T24, RT112, HT1376 and RT4 are human bladder cancer cell lines; NHEK are normal human keratinocytes) were obtained from the European Collection of Cell Cultures (Salisbury, UK). Cells were plated at 3×10^3 per well, in flat bottomed 96-well plates in 100 μl of DMEM medium containing: 5% Fetal Clone I, 50 μg/l gentamicin, 1 mM sodium pyruvate and 1% non-essential amino acids. After culturing for 24 h at 37° C. in 5% CO2, to allow cells to adhere to the plates, VDR ligands (compounds (2), (4), (5) and other vitamin D3 analogs as shown in Table 4) were added at concentrations ranging from 100 μM to 0.3 μM in 100 μl of above-mentioned complete medium. After a further 72 h of culture, cell proliferation was measured using a fluorescence-based proliferation assay kit. (CyQuant Cell Proliferation Assay Kit, Molecular Probes, Eugene, Oreg., USA). The IC50 was calculated from the regression curve of the titration data.

HT 1376 = test: Proliferation assay using bladder cancer cell lines, HT1376; assay type: cell-based, human; details: 72 h culture, CyQuant proliferation assay
Description: as §1

RT4 = test: Proliferation assay using bladder cancer cell lines, RT4; assay type: cell-based, human; details: 72 h culture, CyQuant proliferation assay
Description: as §1

NHEK = test: Proliferation assay, NHEK normal human keratinocytes; assay type: cell-based; details: 72 h culture, CyQuant proliferation assay
Description: as §1

Human BPH cells = test: BPH cell proliferation assay (testosterone-induced); assay type: cell-based; details: 48 h
Description: Human BPH cells, prepared, maintained and used as previously described in Crescioli C, et al. Journal of Clinical and Endocrinology Metabolism (2000) 85 p 2576-2583, were obtained from prostate tissues derived from 5 patients, who underwent suprapubic adenomectomy for BPH, after informed consent and approval by the Local Ethical Committee.
For all cell proliferation assays, 4×10^4 BPH cells were seeded onto 12-well plates in their growth medium, starved in red- and serum-free medium containing 0.1% BSA for 24 h, and then treated with specific stimuli for 48 h. Cells in phenol red- and serum-free medium containing 0.1% BSA were used as controls. Thereafter, cells were trypsinized, and each experimental point was derived from hemocytometer counting, averaging at least six different fields for each well, as previously reported (see Crescioli C, et al. Journal of Clinical and Endocrinology Metabolism (2000) 85 p 2576-2583).
Growth assays were also carried out using a fixed concentration of androgens (10 nM) with or without vitamin-D analogs (1 nM, 10 nM) or the anti-androgens finasteride (F, 1 nM) and cyproterone acetate (Cyp, 100 nM. Growth assays were also performed using a fixed concentration of T (10 nM) or GFs (10 ng/ml) with or without the vitamin-D analogs. (10 nM).
In the same experiment, each experimental point was repeated in triplicate or quadruplicate and experiments were performed 3 times. Results are expressed as % variation (mean±SEM) over the maximal T or GF-induced stimulation.

[2] = MTD in CD1 mouse (highest non-hypercalcemic dose); details: in vivo

SMILES	MTD at 4 days [1] [µg/kg]	MTD compared with the corresponding dihydroxy (parent) compound [1]	IC50 (IFN-γ production) [nM]	IC50 (ECV; Homo sapiens) [µM]	IC50 (RT112; Homo sapiens, RT-112, 72 h) [µM]	IC50 (HT 1376; Homo sapiens, HT-1376) [µM]	IC50 (RT4; Homo sapiens, RT-4, 72 h) [µM]	IC50 (NHEK; Homo sapiens, NHEK) [µM]	IC50 (Human BPH cells) [µM]	MTD [2] [µg/kg]	MTD (mice) ([1]; female C57BL/6 mice, p.o. daily for four days, highest dose without hypercalcemia (serum calcium >10.7 mg/dl)) [µg/kg]	IC50 (ECV) [µM]	IC50 (RT112) [µM]	IC50 (HT 1376) [µM]	IC50 (RT4) [µM]	IC50 (NHEK) [µM]
CC(=O)OC1C/C(=C/C=C2\CCC[C@]3(C)C(C(C)CC#CC(OC(C)=O)(C(F)(F)F)C(F)(F)F)=CCC23)C[C@@H](OC(C)=O)C1 (stereo partly drawn) [(5), 1,3,25-Tri-O-acetyl-1,25-Dihydroxy-16-ene-23-yne-26,27-hexafluoro-19-nor-cholecalciferol]	3	significantly higher; also recorded: considerably greater	0.499	32	13	> 100	7	25.6								
C=C1/C(=C\C=C2/CCC[C@]3(C)C(C(C)C/C=C/C(C)(C)O)=CCC23)CC(OC(C)=O)C[C@@H]1OC(C)=O (stereo partly drawn) [(9), 1,3-Di-O-acetyl-1,25-dihydroxy-16,23E-diene-cholecalciferol]				58.7	14	> 100	82	5.1	0.00912	3						
C=C1/C(=C\C=C2/CCC[C@]3(C)C(C4(CCCC(C)(C)O)CC4)=CCC23)CC(OC(C)=O)C[C@@H]1OC(C)=O (stereo partly drawn) [(39), 1,3-Di-O-acetyl-1α,25-hydroxy-16-ene-20-cyclopropyl-cholecalciferol]	3		0.045		21.5		2.8									
CC(CC#CC(O)(C(F)(F)F)C(F)(F)F)C1=CCC2C(=CC=C3CC(O)CC(O)C3)CCCC12C (stereo not drawn) [(3), 1,25-dihydroxy-16-ene-23-yne-26,27-hexafluoro-19-nor-cholecalciferol, reference compound]											0.3					
CC(=O)OC1C/C(=C/C=C2\CCC[C@]3(C)C(C(C)CCCC(C)(C)O)=CCC23)C[C@@H](OC(C)=O)C1 (stereo partly drawn) [(18), 1,3-Di-O-acetyl-1,25-dihydroxy-16-ene-19-nor-cholecalciferol]				27.9	1	96	8	5.8	2.24e-05	3						
CC(=O)OC1C/C(=C/C=C2\CCC[C@@]3(C)C2CCC3C2(CC#CC(C)(C)O)CC2)C[C@@H](OC(C)=O)C1 (stereo partly drawn) [(24), 1,3-Di-O-acetyl-1,25-dihydroxy-20-cyclopropyl-23-yne-19-nor-cholecalciferol]				21.5	18	> 100	7	6.8								
CC(C/C=C\C(O)(C(F)(F)F)C(F)(F)F)C1=CCC2C(=CC=C3CC(O)CC(O)C3)CCCC12C (stereo not drawn) [(1), 1,25-dihydroxy-16,23Z-diene-26,27-hexafluoro-19-nor-cholecalciferol, reference compound]												58.7	24	56	20	4.4
CC(=O)OC1C/C(=C/C=C2\CCC[C@]3(C)C(C(C)CC#CC(O)(C(F)(F)F)C(F)(F)F)=CCC23)C[C@@H](OC(C)=O)C1 (stereo partly drawn) [(4), 1,3-Di-O-acetyl-1,25-Dihydroxy-16-ene-23-yne-26,27-hexafluoro-19-nor-cholecalciferol]	10	significantly higher; also recorded: considerably greater	0.525	29	15	> 100	9	0.8								
C=C1/C(=C\C=C2/CCC[C@@]3(C)C2CCC3C2(CCCC(C)(C)O)CC2)C[C@@H](OC(C)=O)C[C@@H]1OC(C)=O (stereo partly drawn) [(35), 1,3-Di-O-acetyl-1,25-dihydroxy-20-cyclopropyl-cholecalciferol]	30			52.1	9	67	10	4.7	1260	30						
C=C1/C(=C\C=C2/CCC[C@]3(C)C(C(C)CCCC(C)(C)O)=CCC23)CC(OC(C)=O)C[C@@H]1OC(C)=O (stereo partly drawn) [(11), 1,3-Di-O-acetyl-1,25-dihydroxy-16-ene-cholecalciferol]				59.9	18	> 100	75	5	0.000759	1						
C=C1/C(=C\C=C2/CCC[C@]3(C)C(C(C)CC#CC(OC(C)=O)(C(F)(F)F)C(F)(F)F)=CCC23)CC(OC(C)=O)C[C@@H]1OC(C)=O (stereo partly drawn) [(13), 1,3,25-Tri-O-acetyl-1,25-dihydroxy-16-ene-23-yne-26,27-hexafluoro-cholecalciferol]	3		0.0401	> 100	17		95	19.5								
CC(=O)OC1C/C(=C/C=C2\CCC[C@@]3(C)C2CCC3C2(C/C=C/C(O)(C(F)(F)F)C(F)(F)F)CC2)C[C@@H](OC(C)=O)C1 (stereo partly drawn) [(31), 1,3-Di-O-acetyl-1,25-dihydroxy-20-cyclopropyl-23E-ene-26,27-hexafluoro-19-nor-cholecalciferol]	0.3			24.3	7	68	9	0.9								
CCC(O)(C#CCC(C)C1=CCC2/C(=C/C=C3/CC(OC(C)=O)C[C@H](OC(C)=O)C3)CCC[C@]12C)CC (stereo partly drawn) [(22), 1,3-Di-O-acetyl-1,25-dihydroxy-16-ene-23-yne-26,27-bishomo-19-nor-cholecalciferol]	100		0.0253	81.7	7	> 100	9	4.7								
C=C1/C(=C\C=C2/CCC[C@]3(C)C(C(C)C/C=C/[C@@](C)(O)C(F)(F)F)=CCC23)CC(OC(C)=O)C[C@@H]1OC(C)=O (stereo partly drawn) [(16), 1,3-Di-O-acetyl-1,25-dihydroxy-16,23E-diene-25R,26-trifluoro-cholecalciferol]				76.6	2	> 100	16	3.1								
CC(=O)OC1C/C(=C/C=C2\CCC[C@]3(C)C(C(C)CC#CC(C)(C)O)=CCC23)C[C@@H](OC(C)=O)C1 (stereo partly drawn) [(20), 1,3-Di-O-Acetyl-1,25-dihydroxy-16-ene-23-yne-19-nor-cholecalciferol]				26.7	1	> 100	9	6.7		30						
CC(=O)OC1C/C(=C/C=C2\CCC[C@]3(C)C(C4(CCCC(C)(C)O)CC4)=CCC23)C[C@@H](OC(C)=O)C1 (stereo partly drawn) [(37), 1,3-Di-O-acetyl-1α,25-dihydroxy-16-ene-20-cyclopropyl-19-nor-cholecalciferol]	10		0.068		17.4		3									
CC(=O)OC1C/C(=C/C=C2\CCC[C@@]3(C)C2CCC3C2(C/C=C\C(O)(C(F)(F)F)C(F)(F)F)CC2)C[C@@H](OC(C)=O)C1 (stereo partly drawn) [(33), 1,3-Di-O-acetyl-1,25-dihydroxy-20-cyclopropyl-23Z-ene-26,27-hexafluoro-19-nor-cholecalciferol]				> 100	16	> 100	18	0.9								
